Series [1] relates to M. tuberculosis H37Rv. The series is classed as cell-based, Mycobacterium tuberculosis. Conditions: for very rapid ATP depletion in M. tuberculosis: reference compounds, 24 h; for ATP pool depleted: in the presence of glycerol, 24 h after treatment.
Series [2] relates to M. tuberculosis H37Rv. The series is described as follows: microbe, parasite or virus in culture. The series is classed as cell-based, Mycobacterium tuberculosis.
Another series is described as follows: in vivo. The series is classed as in vivo, CD-1 female mice. As to conditions: for fAUC/MIC / fT>MIC: corrected for plasma protein binding; for T>MIC: percentage of dosing interval with plasma levels above MIC.
A further series is described as follows: in vitro. The series is classed as cell-based. As to conditions: human.
The subject of another series is MTB pMV262-rv0577. The series is described as follows: microbe, parasite or virus in culture. The series is classed as cell-based. Conditions: Mycobacterium tuberculosis, read-out: MTB pMV262-rv0577 MIC50.
The subject of series [3] is M. tuberculosis H37Rv. The series can be described thus: Metabolomic profiling by LC/MS. As to conditions: 24 h after treatment, in the presence of glycerol. The series is classed as cell-based, Mycobacterium tuberculosis.
Series [4] relates to Rv0577, Rv0911, Rv2298 and lldD2. The series is classed as binding, M. bovis BCG.
[5] abbreviates: female, CD-1, mouse, in vivo, po, 25 mg/kg.
Setting [6] is: female, CD-1, mouse, in vivo, po, 100 mg/kg.
Where [7] appears, read: mouse, single oral dose 25 mg kg^−1, lung.
[8] abbreviates: Mycobacterium tuberculosis, H37RV.
[9] abbreviates: Mycobacterium tuberculosis, H37RV, read-out: MTB H37Rv MIC50.

The values below come from PMC3220188 (Nature Communications, 2010).

The structures appear in SMILES notation. ≈ marks a conversion by molar mass, not a printed value. Where two headings read alike, the source gives them in different places. Marks after values point to notes of the source that are not given here.

The AUC is the area under the concentration-time curve, a measure of exposure. Read a high AUC as more exposure. By Cmax is commonly meant the maximum level reached in the sampled fluid or tissue. Broadly, the Tmax is the time at which the peak concentration occurs. For orientation: bioavailability means dose-corrected exposure relative to a reference, in per cent. High values mean much systemic uptake, low ones little systemic uptake. A word on the half-life: it is how long it takes for the measured level to halve. Lower therefore signals fast loss. In general, CC50 refers to the concentration at which the toxic effect on the cells reaches its halfway point. Lower therefore signals greater toxicity to the cells.

Regarding `COc1c(N2C[C@@H]3CCCN[C@@H]3C2)c(F)cc2c(=O)c(C(=O)O)cn(C3CC3)c12` [moxifloxacin, reference compound], the “very rapid ATP depletion in M. tuberculosis” value in the series with M. tuberculosis H37Rv [1] is given as “not observed”. Moreover, in the series with M. tuberculosis H37Rv [2], the “activity against M. tuberculosis in the absence of glycerol in the culture medium” value (“activity against M. tuberculosis” below) is recorded as “comparable”.
Turning to `Cc1ccc(C(=O)N2CCOCC2)cc1Nc1nccn1-c1cc(NC2CC2)ncn1` [Compound 3, (3-(1-(6-(Cyclopropylamino)pyrimidin-4-yl)-1H-imidazol-2-ylamino)-4-methylphenyl)(morpholino)methanone], in “in vivo” (setting [5]), the AUC amounted to 12400 ng·h/mL, the Cmax came to 3000 ng/mL, the time to peak (Tmax) worked out at 0.5 h and the bioavailability was 50%. For the same molecule, in the series “in vivo” (setting [5]), the half-life was 2.3 h. For the same molecule, in the series “in vivo” (setting [6]), the AUC was 59300 ng·h/mL, the peak level (Cmax) was 8900 ng/mL, the time to peak (Tmax) worked out at 0.5 h and the bioavailability stood at 50%. In “in vivo” (setting [6]), this molecule gave a half-life of 3 h. Moreover, in the series “in vivo” (mouse, 25 mg kg^−1, lung), the “Lung AUC/MIC” value is 1070.6 and the “Lung T>MIC” value was found to be 100. Also, in the series “in vivo” (mouse, 25 mg kg^−1), the fAUC/MIC was 113.7, the “fT>MIC” value is on record as 47% and the “T>MIC” value came out at 73%. The “Lung T>MIC” value in the series “in vivo” (mouse, 100 mg kg^−1, lung) stood at 100. In addition, in the series “in vivo” (mouse, 100 mg kg^−1, lung, extrapolated assuming lung exposure proportional to dose), the “Lung AUC/MIC” value was 4654.8 ^*. For the same molecule, in the series “in vivo” (mouse, 100 mg kg^−1), the fAUC/MIC was 544.6, the “fT>MIC” value is given as 82% and the “T>MIC” value is recorded as 100%. Further, the exposure versus dose entry in “in vivo” (mouse, 25 and 100 mg kg^−1) is “proportional to dose”. In addition, the “Lung AUC” value in “in vivo” (setting [7]) amounted to 17.5 µg·h/g. The half-maximal cytotoxic concentration (CC50) in the series “in vitro” was > 50 µM. Also, the MIC50 against M. tuberculosis H37Rv [2] (setting [8]) is 0.036 ± 0.04 µM (≈ 0.0151 µg/mL).
On to `Cc1ccc(NC(=O)c2ccccc2)cc1Nc1nccn1-c1cc(NC2CCCC2)ncn1` [Compound 1, N-(3-(1-(6-(Cyclopentylamino)pyrimidin-4-yl)-1H-imidazol-2-ylamino)-4-methylphenyl)benzamide], for which the MIC50 in the series with MTB pMV262-rv0577 stood at 2.32 ± 0.4 µM (≈ 1.05 µg/mL). Also, in the series “in vivo” (setting [5]), the area under the curve (AUC) stood at 23400 ng·h/mL, the highest concentration (Cmax) was 4000 ng/mL, the time of peak concentration (Tmax) is 1 h and the bioavailability was found to be 100%. The half-life in “in vivo” (setting [5]) is 2.5 h. Moreover, in the series “in vivo” (mouse, 25 mg kg^−1, lung), the “Lung AUC/MIC” value was determined as 31.2 and the “Lung T>MIC” value was determined as 32. Besides, in the series “in vivo” (mouse, 25 mg kg^−1), the fAUC/MIC was 8.6, the “fT>MIC” value is 10% and the “T>MIC” value was determined as 42%. In addition, the “Lung AUC” value in the series “in vivo” (setting [7]) turned out to be 10.2 µg·h/g. In the series on M. tuberculosis H37Rv [1], the ATP pool depleted was > 75%. Also, the “accumulation of glycerol phosphate” value in the series on M. tuberculosis H37Rv [3] is “significant accumulation”. Besides, the cytotoxic concentration (CC50) in the series “in vitro” is > 50 µM. In the series on M. tuberculosis H37Rv [2] (setting [8]), this molecule yielded an MIC50 of 0.75 ± 0.32 µM (≈ 0.34 µg/mL). The MIC50 in the series with M. tuberculosis H37Rv [2] (setting [9]) amounted to 0.35 ± 0.1 µM (≈ 0.159 µg/mL).
In the case of `[H]/N=C(/N)N[C@H]1[C@H](O)[C@@H](O)[C@H](O[C@@H]2O[C@@H](C)[C@](O)(C=O)[C@H]2O[C@@H]2O[C@@H](CO)[C@H](O)[C@@H](O)[C@@H]2NC)[C@@H](N/C(N)=N\[H])[C@@H]1O` [Streptomycin, streptomycin, reference compound], the MIC50 stood at 0.12 ± 0.01 µM (≈ 0.0698 µg/mL) in the series on MTB pMV262-rv0577 and 0.18 ± 0.02 µM (≈ 0.105 µg/mL) in the series with M. tuberculosis H37Rv [2] (setting [9]). For the same molecule, the “very rapid ATP depletion in M. tuberculosis” value in the series with M. tuberculosis H37Rv [1] is “not observed”. Also, the “activity against M. tuberculosis” value in the series on M. tuberculosis H37Rv [2] is “comparable”.
Consider `CC(=O)C=O` [methylglyoxal], for which the MIC50 against M. tuberculosis H37Rv [2] worked out at 400 µM (≈ 28.8 µg/mL).
As to `CC[C@@H](CO)NCCN[C@@H](CC)CO` [EMB, ethambutol, reference compound], in “in vivo” (setting [6]), the exposure (AUC) was found to be 8000 ng·h/mL, the highest level (Cmax) was 2500 ng/mL, the Tmax came to 0.5 h and the half-life is 1.8 h. In the series “in vivo” (mouse, 100 mg kg^−1, lung), the “Lung AUC” value is 145 µg·h/g and the “Lung AUC/MIC” value is recorded as 247. For the same molecule, in “in vivo” (mouse, 100 mg kg^−1), the fAUC/MIC is on record as 10, the “fT>MIC” value was 15% and the “T>MIC” value came out at 17%.
For `O=P(O)(O)OCC(O)CO` (centres unmarked) [glycerol phosphate], the MIC50 with M. tuberculosis H37Rv [2] stood at 12500 µM.
Regarding `Cc1ccc(NC(=O)c2cccc(NCCN)c2)cc1Nc1nccn1-c1cc(NC2CC2)ncn1` [Compound 4, 3-(2-Aminoethylamino)-N-(3-(1-(6-(cyclopropylamino)pyrimidin-4-yl)-1H-imidazol-2-ylamino)-4-methylphenyl)benzamide], the “binding of candidate proteins to sepharose-linked 4 in the presence of free 4” value in series [4] is recorded as “dramatically decreased”. Besides, the MIC50 in the series with M. tuberculosis H37Rv [2] (setting [8]) was found to be 0.21 ± 0.01 µM (≈ 0.102 µg/mL).
On to `O=C(CO)COP(=O)(O)O` [DHAP, dihydroxyacetone phosphate], for which the MIC50 against M. tuberculosis H37Rv [2] is 1200 µM.
For `NNC(=O)c1ccncc1` [Isoniazid, isoniazid, reference compound], in the series on MTB pMV262-rv0577, the MIC50 is 0.37 ± 0.05 µM (≈ 0.0507 µg/mL). In the series “in vivo” (setting [5]), this molecule displayed an exposure (AUC) of 52000 ng·h/mL and a Cmax of 28000 ng/mL. Moreover, in “in vivo” (mouse, 25 mg kg^−1), the “fT>MIC” value was found to be 62% and the “T>MIC” value turned out to be 68%. Further, in the series “in vivo” (mouse, single oral dose 25 mg kg^−1, plasma), the Tmax is reported as 0.25 h. Besides, in the series with M. tuberculosis H37Rv [2], the “activity against M. tuberculosis” value is on record as “comparable”. Besides, the MIC50 in the series on M. tuberculosis H37Rv [2] (setting [9]) was determined as 0.42 ± 0.03 µM (≈ 0.0576 µg/mL).
Take `c1ccc(-c2nc3cc(Nc4nccn4-c4cc(NC5CCCC5)ncn4)ccc3[nH]2)cc1` [Compound 2, N-(1-(6-(Cyclopentylamino)pyrimidin-4-yl)-1H-imidazol-2-yl)-2-phenyl-1H-benzo[d]imidazol-5-amine]: the MIC50 in the series with MTB pMV262-rv0577 stood at 3.53 ± 1.13 µM (≈ 1.54 µg/mL). In the series “in vivo” (setting [5]), the AUC is 10600 ng·h/mL, the Cmax amounted to 3800 ng/mL, the time to peak (Tmax) was found to be 0.5 h and the bioavailability was determined as 100%. The half-life in the series “in vivo” (setting [5]) was 2.2 h. Also, in the series “in vivo” (mouse, 25 mg kg^−1, lung), the “Lung AUC/MIC” value came out at 44.8 and the “Lung T>MIC” value was determined as 54. In “in vivo” (mouse, 25 mg kg^−1), the fAUC/MIC turned out to be 17.8, the “fT>MIC” value was determined as 26% and the “T>MIC” value worked out at 38%. Besides, the “Lung AUC” value in the series “in vivo” (setting [7]) worked out at 10.7 µg·h/g. Also, the ATP pool depleted in the series with M. tuberculosis H37Rv [1] is > 75%. In the series with M. tuberculosis H37Rv [3], the “accumulation of glycerol phosphate” value is “significant accumulation”. The CC50 in “in vitro” is > 50 µM. The same molecule registered an MIC50 against M. tuberculosis H37Rv [2] (setting [8]) of 0.57 ± 0.23 µM (≈ 0.249 µg/mL). For the same molecule, the MIC50 in the series with M. tuberculosis H37Rv [2] (setting [9]) turned out to be 0.34 ± 0.11 µM (≈ 0.148 µg/mL).
